Experiments:
velvetleaf = test: Test C postemergence; assay type: in vivo, Abutilon theophrasti; details: for Plant response rating, Velvetleaf: scale 0 to 100 (0 no effect, 100 complete control)
In short: (§1)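 Seeds were sown in loam–sand blend and sprayed preemergence, while plants at 1- to 4-leaf stage (2–18 cm) in peat-based medium received postemergence sprays; test chemicals were formulated in a non-phytotoxic solvent with surfactant. After 13–15 days in a greenhouse, injury was rated visually against controls, 0 (no effect) to 100 (complete control).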

pigweed [1] = test: Test C postemergence; assay type: in vivo, Amaranthus retroflexus; details: for Plant response rating, Pigweed: scale 0 to 100 (0 no effect, 100 complete control)
In short: as §1

wheat = test: Test A postemergence; assay type: in vivo, Triticum aestivum
In short: (§2)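 Visual injury scored 0–100 (100 = complete control) against untreated controls about 10 days after treatment in a greenhouse. Test chemicals, formulated with surfactant in non-phytotoxic solvent, were sprayed on soil preemergence or on 2-10 cm, one- to two-leaf plants postemergence.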

barnyardgrass [2] = test: Test C postemergence; assay type: in vivo, Echinochloa crus-galli; details: for Barnyardgrass plant response rating / Plant response rating, Barnyardgrass: scale 0 to 100 (0 no effect, 100 complete control)
In short: as §1

Heteranthera limosa = test: Test B flooded paddy test; assay type: in vivo; details: Flood, 250 g ai/ha; 0 to 100 scale where 0 is no effect and 100 is complete control
In short: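 Plants at 2-leaf stage; pots flooded to 3 cm above soil and compound applied directly into paddy water, depth held throughout. After 13 to 15 days in greenhouse, visual rating versus controls on 0 (no effect) to 100 (complete control) scale.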

wild oat = test: Test C postemergence; assay type: in vivo, Avena fatua; details: for Plant response rating, Oat, Wild: scale 0 to 100 (0 no effect, 100 complete control)
In short: as §1

barnyardgrass [3] = test: Test A preemergence; assay type: in vivo, Echinochloa crus-galli; details: for Barnyardgrass plant response rating: 500 g ai/ha
In short: as §2

ragweed = test: Test C postemergence; assay type: in vivo, Ambrosia elatior; details: for Plant response rating, Ragweed: scale 0 to 100 (0 no effect, 100 complete control)
In short: as §1

pigweed [4] = test: Test A preemergence; assay type: in vivo, Amaranthus retroflexus; details: for Plant response rating, Pigweed: 125 g ai/ha
In short: as §2

morningglory = test: Test C postemergence; assay type: in vivo, Ipomoea coccinea; details: for Plant response rating, Morningglory: scale 0 to 100 (0 no effect, 100 complete control)
In short: as §1

blackgrass = test: Test C postemergence; assay type: in vivo, Alopecurus myosuroides; details: for Blackgrass plant response rating / Plant response rating, Blackgrass: scale 0 to 100 (0 no effect, 100 complete control)
In short: as §1

kochia = test: Test C postemergence; assay type: in vivo, Kochia scoparia; details: for Kochia plant response rating / Plant response rating, Kochia: scale 0 to 100 (0 no effect, 100 complete control)
In short: as §1

[5] = Postemergence, 31 g ai/ha, 13 to 15 days
[6] = 125 g ai/ha, 0 to 100 scale where 0 is no effect and 100 is complete control
[7] = 500 g ai/ha, 0 to 100 scale where 0 is no effect and 100 is complete control
[8] = 16 g ai/ha, postemergence, visual rating, 13 to 15 days
[9] = 0 to 100 scale, 0 no effect, 100 complete control, approx. 10 days
[10] = 0 to 100 scale where 0 is no effect and 100 is complete control
[11] = 500 g ai/ha, 0 to 100 scale, 0 no effect, 100 complete control, approx. 10 days
[12] = 16 g ai/ha, postemergence, 0 is no effect, 100 is complete control
[13] = 125 g ai/ha, postemergence, visual rating
[14] = 1000 g ai/ha, 0 to 100 scale, 0 no effect, 100 complete control

CC(C)c1cnn(-c2c(C#N)cccc2Oc2ncc(Cl)cn2)c1 [Compound 85]
Plant response rating (0 to 100), Velvetleaf (velvetleaf; 125 g ai/ha, postemergence): 55 | Plant response rating, Velvetleaf (velvetleaf; [5]): 45 | Plant response rating, Velvetleaf (velvetleaf; Postemergence, 62 g ai/ha): 45 | Plant response rating (0 to 100), Pigweed (pigweed [1]; 125 g ai/ha, postemergence): 70 | Plant response rating, Pigweed (pigweed [1]; [5]): 55 | Plant response rating, Pigweed (pigweed [1]; Postemergence, 62 g ai/ha): 70 | Plant response rating, Wheat (wheat; [6]): 0 | Plant response rating, Wheat (wheat; [7]): 70 | Barnyardgrass plant response rating (barnyardgrass [2]; [8]): 10 | Plant response rating (0 to 100), Barnyardgrass (barnyardgrass [2]; 125 g ai/ha, postemergence): 5 | Plant response rating, Barnyardgrass (barnyardgrass [2]; [5]): 5 | Plant response rating, Barnyardgrass (barnyardgrass [2]; Postemergence, 62 g ai/ha): 5 | Plant response rating, Ducksalad (Heteranthera limosa): 30 | Plant response rating (0 to 100), Oat, Wild (wild oat; 125 g ai/ha, postemergence): 5 | Plant response rating, Oat, Wild (wild oat; [5]): 0 | Plant response rating, Oat, Wild (wild oat; Postemergence, 62 g ai/ha): 5 | Plant response rating, Barnyardgrass (barnyardgrass [3]; [6]): 20 | Barnyardgrass plant response rating (barnyardgrass [3]; [9]): 100 | Plant response rating (0 to 100), Ragweed (ragweed; 125 g ai/ha, postemergence): 65 | Plant response rating, Ragweed (ragweed; [5]): 20 | Plant response rating, Ragweed (ragweed; Postemergence, 62 g ai/ha): 20 | Plant response rating, Pigweed (pigweed [4]; [10]): 100 | Pigweed plant response rating (pigweed [4]; [11]): 100 | Plant response rating (0 to 100), Morningglory (morningglory; 125 g ai/ha, postemergence): 40 | Plant response rating, Morningglory (morningglory; [5]): 60 | Plant response rating, Morningglory (morningglory; Postemergence, 62 g ai/ha): 25 | Blackgrass plant response rating (blackgrass; [8]): 0 | Plant response rating (0 to 100), Blackgrass (blackgrass; 125 g ai/ha, postemergence): 10 | Plant response rating, Blackgrass (blackgrass; [5]): 0 | Plant response rating, Blackgrass (blackgrass; Postemergence, 62 g ai/ha): 5 | Kochia plant response rating (kochia; [8]): 50 | Plant response rating (0 to 100), Kochia (kochia; 125 g ai/ha, postemergence): 90 | Plant response rating, Kochia (kochia; [5]): 50 | Plant response rating, Kochia (kochia; Postemergence, 62 g ai/ha): 80

Cc1cnc(Oc2cccc(C#N)c2-n2cc(C#N)cn2)nc1 [Compound 90]
Plant response rating (0 to 100), Velvetleaf (velvetleaf; 125 g ai/ha, postemergence): 60 | Plant response rating, Velvetleaf (velvetleaf; [5]): 55 | Plant response rating, Velvetleaf (velvetleaf; Postemergence, 62 g ai/ha): 60 | Plant response rating (0 to 100), Pigweed (pigweed [1]; 125 g ai/ha, postemergence): 70 | Plant response rating, Pigweed (pigweed [1]; [5]): 45 | Plant response rating, Pigweed (pigweed [1]; Postemergence, 62 g ai/ha): 45 | Plant response rating, Wheat (wheat; [6]): 0 | Plant response rating, Wheat (wheat; [7]): 50 | Barnyardgrass plant response rating (barnyardgrass [2]; [8]): 5 | Plant response rating (0 to 100), Barnyardgrass (barnyardgrass [2]; 125 g ai/ha, postemergence): 10 | Plant response rating, Barnyardgrass (barnyardgrass [2]; [5]): 5 | Plant response rating, Barnyardgrass (barnyardgrass [2]; Postemergence, 62 g ai/ha): 5 | Plant response rating, Ducksalad (Heteranthera limosa): 40 | Plant response rating (0 to 100), Oat, Wild (wild oat; 125 g ai/ha, postemergence): 5 | Plant response rating, Oat, Wild (wild oat; [5]): 0 | Plant response rating, Oat, Wild (wild oat; Postemergence, 62 g ai/ha): 5 | Plant response rating, Barnyardgrass (barnyardgrass [3]; [6]): 70 | Barnyardgrass plant response rating (barnyardgrass [3]; [9]): 100 | Plant response rating (0 to 100), Ragweed (ragweed; 125 g ai/ha, postemergence): 65 | Plant response rating, Ragweed (ragweed; [5]): 40 | Plant response rating, Ragweed (ragweed; Postemergence, 62 g ai/ha): 50 | Plant response rating, Pigweed (pigweed [4]; [10]): 100 | Pigweed plant response rating (pigweed [4]; [11]): 100 | Plant response rating (0 to 100), Morningglory (morningglory; 125 g ai/ha, postemergence): 85 | Plant response rating, Morningglory (morningglory; [5]): 60 | Plant response rating, Morningglory (morningglory; Postemergence, 62 g ai/ha): 75 | Blackgrass plant response rating (blackgrass; [8]): 0 | Plant response rating (0 to 100), Blackgrass (blackgrass; 125 g ai/ha, postemergence): 15 | Plant response rating, Blackgrass (blackgrass; [5]): 0 | Plant response rating, Blackgrass (blackgrass; Postemergence, 62 g ai/ha): 5 | Kochia plant response rating (kochia; [8]): 45 | Plant response rating (0 to 100), Kochia (kochia; 125 g ai/ha, postemergence): 90 | Plant response rating, Kochia (kochia; [5]): 70 | Plant response rating, Kochia (kochia; Postemergence, 62 g ai/ha): 45

Clc1cnc(Oc2cccc(Br)c2-n2cc(I)nn2)nc1 [Compound 117]
Plant response rating (0 to 100), Velvetleaf (velvetleaf; [12]): 10 | Plant response rating, Velvetleaf (velvetleaf; [13]): 45 | Plant response rating, Velvetleaf (velvetleaf; Postemergence, 62 g ai/ha): 30 | Plant response rating (0 to 100), Pigweed (pigweed [1]; [12]): 80 | Plant response rating, Pigweed (pigweed [1]; [13]): 90 | Plant response rating, Pigweed (pigweed [1]; Postemergence, 62 g ai/ha): 85 | Plant response rating, Wheat (wheat; [7]): 70 | Plant response rating (0 to 100), Barnyardgrass (barnyardgrass [2]; [12]): 5 | Plant response rating, Barnyardgrass (barnyardgrass [2]; [13]): 10 | Plant response rating, Barnyardgrass (barnyardgrass [2]; [5]): 5 | Plant response rating, Barnyardgrass (barnyardgrass [2]; Postemergence, 62 g ai/ha): 5 | Plant response rating, Ducksalad (Heteranthera limosa): 40 | Plant response rating (0 to 100), Oat, Wild (wild oat; [12]): 10 | Plant response rating, Oat, Wild (wild oat; [13]): 20 | Plant response rating, Oat, Wild (wild oat; Postemergence, 62 g ai/ha): 10 | Plant response rating, Barnyardgrass (barnyardgrass [3]; [6]): 30 | Barnyardgrass plant response rating (barnyardgrass [3]; [10]): 90 | Plant response rating (0 to 100), Ragweed (ragweed; [12]): 25 | Plant response rating, Ragweed (ragweed; [13]): 60 | Plant response rating, Ragweed (ragweed; Postemergence, 62 g ai/ha): 35 | Plant response rating, Pigweed (pigweed [4]; [10]): 100 | Pigweed plant response rating (pigweed [4]; [7]): 100 | Plant response rating (0 to 100), Morningglory (morningglory; [12]): 80 | Plant response rating, Morningglory (morningglory; [13]): 90 | Plant response rating, Morningglory (morningglory; Postemergence, 62 g ai/ha): 90 | Plant response rating (0 to 100), Blackgrass (blackgrass; [12]): 5 | Plant response rating, Blackgrass (blackgrass; [13]): 10 | Plant response rating, Blackgrass (blackgrass; [5]): 10 | Plant response rating, Blackgrass (blackgrass; Postemergence, 62 g ai/ha): 5 | Plant response rating (0 to 100), Kochia (kochia; [12]): 90 | Plant response rating, Kochia (kochia; [13]): 100 | Plant response rating, Kochia (kochia; Postemergence, 62 g ai/ha): 100

FCc1cn(-c2ccccc2Oc2ncc(Cl)cn2)nn1 [Compound 123]
Plant response rating (0 to 100), Velvetleaf (velvetleaf; [12]): 60 | Plant response rating, Velvetleaf (velvetleaf; [13]): 100 | Plant response rating, Velvetleaf (velvetleaf; Postemergence, 62 g ai/ha): 80 | Plant response rating (0 to 100), Pigweed (pigweed [1]; [12]): 70 | Plant response rating, Pigweed (pigweed [1]; [13]): 85 | Plant response rating, Pigweed (pigweed [1]; Postemergence, 62 g ai/ha): 85 | Plant response rating, Wheat (wheat; [14]): 70 | Plant response rating (0 to 100), Barnyardgrass (barnyardgrass [2]; [12]): 10 | Plant response rating, Barnyardgrass (barnyardgrass [2]; [13]): 15 | Plant response rating, Barnyardgrass (barnyardgrass [2]; [5]): 15 | Plant response rating, Barnyardgrass (barnyardgrass [2]; Postemergence, 62 g ai/ha): 15 | Plant response rating, Ducksalad (Heteranthera limosa): 80 | Plant response rating (0 to 100), Oat, Wild (wild oat; [12]): 0 | Plant response rating, Oat, Wild (wild oat; [13]): 0 | Plant response rating, Oat, Wild (wild oat; Postemergence, 62 g ai/ha): 0 | Plant response rating, Barnyardgrass (barnyardgrass [3]; [14]): 100 | Plant response rating (0 to 100), Ragweed (ragweed; [12]): 35 | Plant response rating, Ragweed (ragweed; [13]): 75 | Plant response rating, Ragweed (ragweed; Postemergence, 62 g ai/ha): 70 | Pigweed plant response rating (pigweed [4]; 1000 g ai/ha, 0 to 100 scale, 0 no effect, 100 complete control, approx. 10 days): 100 | Plant response rating (0 to 100), Morningglory (morningglory; [12]): 5 | Plant response rating, Morningglory (morningglory; [13]): 75 | Plant response rating, Morningglory (morningglory; Postemergence, 62 g ai/ha): 55 | Plant response rating (0 to 100), Blackgrass (blackgrass; [12]): 0 | Plant response rating, Blackgrass (blackgrass; [13]): 0 | Plant response rating, Blackgrass (blackgrass; [5]): 0 | Plant response rating, Blackgrass (blackgrass; Postemergence, 62 g ai/ha): 0 | Plant response rating (0 to 100), Kochia (kochia; [12]): 50 | Plant response rating, Kochia (kochia; [13]): 85 | Plant response rating, Kochia (kochia; Postemergence, 62 g ai/ha): 70
